Experimental data: patent US20060069132A1, “Azolecarboxamide herbicides” (priority 2004, published 2006)

Legend:
barnyardgrass [1] = assay: Test A pre-/postemergence herbicide test; type: in vivo, Echinochloa crus-galli
How it was run: (§1)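 Pre: seeded sandy loam, directed soil spray, compound in non-phytotoxic solvent + surfactant. Post: 1–2-leaf plants (2–10 cm), sprayed to runoff. Greenhouse ~10 d; visual injury vs untreated, 0–100 scale.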

large crabgrass [2] = assay: Test A pre-/postemergence herbicide test; type: in vivo, Digitaria sanguinalis
How it was run: as §1

giant foxtail [3] = assay: Test A pre-/postemergence herbicide test; type: in vivo, Setaria faberi
How it was run: as §1

morningglory [4] = assay: Test A pre-/postemergence herbicide test; type: in vivo, Ipomoea spp.
How it was run: as §1

redroot pigweed = assay: Test A pre-/postemergence herbicide test; type: in vivo, Amaranthus retroflexus
How it was run: as §1

velvetleaf [5] = assay: Test A pre-/postemergence herbicide test; type: in vivo, Abutilon theophrasti
How it was run: as §1

barnyardgrass [6] = assay: Test B pre-/postemergence herbicide test; type: in vivo, Echinochloa crus-galli; conditions: for Plant response rating, Barnyardgrass: preemergence; for Barnyardgrass plant response rating: postemergence, visual rating, scale 0 (no effect) to 100 (complete control)
How it was run: (§2)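 Pre: seeds sown, then sprayed. Post: 1–4-leaf plants (2–18 cm) sprayed at the same time. Paddy: flooded, treated at 2-leaf stage. Formulation: non-phytotoxic solvent with surfactant. Greenhouse 13–15 days; visual 0–100 score relative to controls.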

Surinam grass = assay: Test B pre-/postemergence herbicide test; type: in vivo, Urochloa decumbens; conditions: for Plant response rating, Surinam Grass: preemergence; for Surinam Grass plant response rating: postemergence, visual rating, scale 0 (no effect) to 100 (complete control)
How it was run: (§3)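 Greenhouse pot assay with simultaneous preemergence (treated seed) and postemergence (2–18 cm seedlings) applications of surfactant-containing, non-phytotoxic solvent formulations. Response scored visually 13–15 days later on a 0–100 scale, 100 meaning complete control.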

cocklebur = assay: Test B pre-/postemergence herbicide test; type: in vivo, Xanthium strumarium; conditions: for Plant response rating, Cocklebur: preemergence; for Cocklebur plant response rating: postemergence, visual rating, scale 0 (no effect) to 100 (complete control)
How it was run: as §2

corn = assay: Test B pre-/postemergence herbicide test; type: in vivo, Zea mays; conditions: for Plant response rating, Corn: preemergence; for Corn plant response rating: postemergence, visual rating, scale 0 (no effect) to 100 (complete control)
How it was run: as §3

large crabgrass [7] = assay: Test B pre-/postemergence herbicide test; type: in vivo, Digitaria sanguinalis; conditions: for Plant response rating, Crabgrass, Large: preemergence; for Crabgrass, Large plant response rating: postemergence, visual rating, scale 0 (no effect) to 100 (complete control)
How it was run: as §3

giant foxtail [8] = assay: Test B pre-/postemergence herbicide test; type: in vivo, Setaria faberi; conditions: for Plant response rating, Foxtail, Giant: preemergence; for Foxtail, Giant plant response rating: postemergence, visual rating, scale 0 (no effect) to 100 (complete control)
How it was run: as §3

lambsquarters = assay: Test B pre-/postemergence herbicide test; type: in vivo, Chenopodium album; conditions: for Plant response rating, Lambsquarters: preemergence; for Lambsquarters plant response rating: postemergence, visual rating, scale 0 (no effect) to 100 (complete control)
How it was run: as §3

morningglory [9] = assay: Test B pre-/postemergence herbicide test; type: in vivo, Ipomoea coccinea; conditions: for Plant response rating, Morningglory: preemergence; for Morningglory plant response rating: postemergence, visual rating, scale 0 (no effect) to 100 (complete control)
How it was run: as §2

pigweed = assay: Test B pre-/postemergence herbicide test; type: in vivo, Amaranthus retroflexus; conditions: for Plant response rating, Pigweed: preemergence; for Pigweed plant response rating: postemergence, visual rating, scale 0 (no effect) to 100 (complete control)
How it was run: as §3

rice [10] = assay: Test B pre-/postemergence herbicide test; type: in vivo, Oryza sativa; conditions: preemergence, 125 g ai/ha; 0 to 100 scale, 0 is no effect, 100 is complete control
How it was run: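 Species tested were Echinochloa crus-galli, Ipomoea coccinea, Xanthium strumarium and Oryza sativa, treated both before emergence and at the 1- to 4-leaf stage; rice and barnyardgrass were also tested under flooding at 2 leaves. Greenhouse incubation lasted 13–15 days before visual 0–100 scoring.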

velvetleaf [11] = assay: Test B pre-/postemergence herbicide test; type: in vivo, Abutilon theophrasti; conditions: for Plant response rating, Velvetleaf: preemergence; for Velvetleaf plant response rating: postemergence, visual rating, scale 0 (no effect) to 100 (complete control)
How it was run: as §3

blackgrass = assay: Test B postemergence herbicide test; type: in vivo, Alopecurus myosuroides; conditions: postemergence, visual rating, scale 0 (no effect) to 100 (complete control)
How it was run: (§4)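 Read-out: visual comparison with controls, scored 0 to 100, where 100 means complete control and 0 no effect. Formulated chemicals were applied postemergence to plants 2–18 cm tall (1- to 4-leaf), or to flooded-paddy plants at the 2-leaf stage, then held 13 to 15 days under glass.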

wheat = assay: Test B postemergence herbicide test; type: in vivo, Triticum aestivum; set-up: key to Wheat plant response rating: 0 = no effect, 100 = complete control; conditions: postemergence, visual rating, scale 0 (no effect) to 100 (complete control)
How it was run: (§5)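 Postemergence plants were sprayed with formulated test chemicals at 2 to 18 cm height (1- to 4-leaf stage); paddy species were grown to the 2-leaf stage. After 13 to 15 days in a greenhouse, injury was rated visually against untreated controls on a 0–100 scale (0 = no effect, 100 = complete control).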

wild oat = assay: Test B postemergence herbicide test; type: in vivo, Avena fatua; conditions: postemergence, visual rating, scale 0 (no effect) to 100 (complete control)
How it was run: as §5

rice [12] = assay: Test B flooded paddy test; type: in vivo, Oryza sativa; conditions: 1000 g ai/ha, visual rating, scale 0 to 100 (0 no effect, 100 complete control), 13 to 15 days
How it was run: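 Greenhouse test; postemergence application to plants at 1–4 leaves (2–18 cm); paddy species at 2 leaves; evaluated visually vs controls at 13–15 days; scale 0–100 (100 = complete control).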

[13] = system: small flower umbrella sedge; assay: Test B flooded paddy test; type: in vivo, Cyperus difformis; conditions: 1000 g ai/ha, visual rating, scale 0 to 100 (0 no effect, 100 complete control), 13 to 15 days
How it was run: as §4

ducksalad = assay: Test B flooded paddy test; type: in vivo, Heteranthera limosa; conditions: 1000 g ai/ha, visual rating, scale 0 to 100 (0 no effect, 100 complete control), 13 to 15 days
How it was run: as §4

barnyardgrass [14] = assay: Test B flooded paddy test; type: in vivo, Echinochloa crus-galli; conditions: 1000 g ai/ha, visual rating, scale 0 to 100 (0 no effect, 100 complete control), 13 to 15 days
How it was run: as §4

[15] = Postemergence, 500 g ai/ha, 0 to 100 scale, 0 no effect, 100 complete control
[16] = Postemergence, 2000 g ai/ha, 0 to 100 scale, 0 no effect, 100 complete control
[17] = Preemergence, 500 g ai/ha, visual rating, 0 to 100 scale (0 no effect, 100 complete control)
[18] = Preemergence, 2000 g ai/ha, visual rating, 0 to 100 scale (0 no effect, 100 complete control)
[19] = preemergence, 500 g ai/ha, visual injury, 0 to 100 scale (0 no effect, 100 complete control)
[20] = 500 g ai/ha, visual rating 0-100, 0 no effect, 100 complete control
[21] = 125 g ai/ha, 0 to 100 scale, 0 is no effect, 100 is complete control

CC(C)NS(=O)(=O)c1cccc(NC(=O)c2cc(C(C)(C)C)nn2C)c1 [Compound 124]
Barnyardgrass plant response rating (barnyardgrass [1]; [15]): 0 | Plant response rating, Barnyardgrass (barnyardgrass [1]; [16]): 0 | Barnyardgrass plant response rating (barnyardgrass [1]; [17]): 0 | Barnyardgrass plant response rating (barnyardgrass [1]; [18]): 10 | Crabgrass, Large plant response rating (large crabgrass [2]; [15]): 10 | Plant response rating, Crabgrass, Large (large crabgrass [2]; [16]): 10 | Crabgrass, Large plant response rating (large crabgrass [2]; [17]): 30 | Crabgrass, Large plant response rating (large crabgrass [2]; [18]): 15 | Foxtail, Giant plant response rating (giant foxtail [3]; [15]): 0 | Plant response rating, Foxtail, Giant (giant foxtail [3]; [16]): 0 | Foxtail, Giant plant response rating (giant foxtail [3]; [17]): 0 | Foxtail, Giant plant response rating (giant foxtail [3]; [18]): 0 | Morningglory plant response rating (morningglory [4]; [15]): 5 | Plant response rating, Morningglory (morningglory [4]; [16]): 0 | Morningglory plant response rating (morningglory [4]; [17]): 5 | Morningglory plant response rating (morningglory [4]; [18]): 15 | Pigweed plant response rating (redroot pigweed; [15]): 30 | Plant response rating, Pigweed (redroot pigweed; [16]): 40 | Pigweed plant response rating (redroot pigweed; [18]): 75 | Pigweed plant response rating (redroot pigweed; [19]): 20 | Velvetleaf plant response rating (velvetleaf [5]; [15]): 10 | Plant response rating, Velvetleaf (velvetleaf [5]; [16]): 10 | Velvetleaf plant response rating (velvetleaf [5]; [18]): 15 | Velvetleaf plant response rating (velvetleaf [5]; [19]): 0 | Plant response rating, Barnyardgrass (barnyardgrass [6]; [20]): 10 | Barnyardgrass plant response rating (barnyardgrass [6]; 125 g ai/ha): 0 | Barnyardgrass plant response rating (barnyardgrass [6]; 500 g ai/ha): 0 | Plant response rating, Barnyardgrass (barnyardgrass [6]; [21]): 0 | Plant response rating, Surinam Grass (Surinam grass; [20]): 10 | Surinam Grass plant response rating (Surinam grass; 125 g ai/ha): 10 | Surinam Grass plant response rating (Surinam grass; 500 g ai/ha): 20 | Plant response rating, Surinam Grass (Surinam grass; [21]): 0 | Plant response rating, Cocklebur (cocklebur; [20]): 0 | Cocklebur plant response rating (cocklebur; 125 g ai/ha): 0 | Cocklebur plant response rating (cocklebur; 500 g ai/ha): 10 | Plant response rating, Cocklebur (cocklebur; [21]): 0 | Plant response rating, Corn (corn; [20]): 0 | Corn plant response rating (corn; 125 g ai/ha): 0 | Corn plant response rating (corn; 500 g ai/ha): 10 | Plant response rating, Corn (corn; [21]): 0 | Plant response rating, Crabgrass, Large (large crabgrass [7]; [20]): 0 | Crabgrass, Large plant response rating (large crabgrass [7]; 125 g ai/ha): 10 | Crabgrass, Large plant response rating (large crabgrass [7]; 500 g ai/ha): 10 | Plant response rating, Crabgrass, Large (large crabgrass [7]; [21]): 0 | Plant response rating, Foxtail, Giant (giant foxtail [8]; [20]): 10 | Foxtail, Giant plant response rating (giant foxtail [8]; 125 g ai/ha): 0 | Foxtail, Giant plant response rating (giant foxtail [8]; 500 g ai/ha): 10 | Plant response rating, Foxtail, Giant (giant foxtail [8]; [21]): 0 | Plant response rating, Lambsquarters (lambsquarters; [20]): 80 | Lambsquarters plant response rating (lambsquarters; 125 g ai/ha): 30 | Lambsquarters plant response rating (lambsquarters; 500 g ai/ha): 70 | Plant response rating, Lambsquarters (lambsquarters; [21]): 0 | Plant response rating, Morningglory (morningglory [9]; [20]): 0 | Morningglory plant response rating (morningglory [9]; 125 g ai/ha): 0 | Morningglory plant response rating (morningglory [9]; 500 g ai/ha): 10 | Plant response rating, Morningglory (morningglory [9]; [21]): 0 | Plant response rating, Pigweed (pigweed; [20]): 90 | Pigweed plant response rating (pigweed; 125 g ai/ha): 20 | Pigweed plant response rating (pigweed; 500 g ai/ha): 70 | Plant response rating, Pigweed (pigweed; [21]): 30 | Plant response rating, Rice (rice [10]): 0 | Plant response rating, Velvetleaf (velvetleaf [11]; [20]): 0 | Velvetleaf plant response rating (velvetleaf [11]; 125 g ai/ha): 0 | Velvetleaf plant response rating (velvetleaf [11]; 500 g ai/ha): 10 | Plant response rating, Velvetleaf (velvetleaf [11]; [21]): 0 | Blackgrass plant response rating (blackgrass; 125 g ai/ha): 0 | Blackgrass plant response rating (blackgrass; 500 g ai/ha): 0 | Wheat plant response rating (wheat; 125 g ai/ha): 0 | Wheat plant response rating (wheat; 500 g ai/ha): 0 | Oat, Wild plant response rating (wild oat; 125 g ai/ha): 0 | Oat, Wild plant response rating (wild oat; 500 g ai/ha): 10 | Rice plant response rating (rice [12]): 0 | Sedge, Umbrella plant response rating [13]: 0 | Ducksalad plant response rating (ducksalad): 70 | Barnyardgrass plant response rating (barnyardgrass [14]): 0
